Test results published in patent US6130053A, “Method for selecting compounds for inhibition of neoplastic lesions” (priority 1999, dated 2000).
Entries after “also recorded” stand apart in the source; their conditions may differ.

Columns and labels:
[1] = molecular target: T1, COX-I (purified cyclooxygenase Type 1) (Ovis aries, UniProt P05979); experiment: COX inhibition assay, purified cyclooxygenase (Type 1); type: biochemical, ram; settings: FIG. 4
T1 construct: purified cyclooxygenase from ram seminal vesicles; from tissue; host or cells: ram seminal vesicles
T1 sequence (P05979 25-600): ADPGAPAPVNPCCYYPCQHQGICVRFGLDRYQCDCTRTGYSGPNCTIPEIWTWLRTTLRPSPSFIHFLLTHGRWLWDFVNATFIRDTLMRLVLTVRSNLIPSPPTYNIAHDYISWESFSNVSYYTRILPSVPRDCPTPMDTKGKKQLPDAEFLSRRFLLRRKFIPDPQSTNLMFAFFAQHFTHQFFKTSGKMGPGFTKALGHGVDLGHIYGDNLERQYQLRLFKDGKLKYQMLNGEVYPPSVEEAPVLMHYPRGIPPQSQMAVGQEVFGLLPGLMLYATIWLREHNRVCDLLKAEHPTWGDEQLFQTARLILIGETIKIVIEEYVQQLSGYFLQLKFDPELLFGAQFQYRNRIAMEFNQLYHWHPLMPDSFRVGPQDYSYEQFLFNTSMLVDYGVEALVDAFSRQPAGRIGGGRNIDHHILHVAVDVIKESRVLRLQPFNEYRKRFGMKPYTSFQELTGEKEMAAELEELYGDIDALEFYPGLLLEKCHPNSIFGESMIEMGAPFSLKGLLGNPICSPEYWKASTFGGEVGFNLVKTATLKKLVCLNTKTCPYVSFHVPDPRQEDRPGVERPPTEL

[2] = tested on: PSA (prostate specific antigen) level; experiment: Human clinical trial post-prostatectomy, PSA level; type: in vivo
Method: A separate clinical trial was also performed on male patients who had prostate cancer, and as a result had their prostates removed. The study was conducted in patients with detectable PSA (prostate specific antigen) levels that were rising following radical prostatectomy, indicating recurrence of prostate cancer.
96 patients were enrolled in the prostate study: a double-blind, placebo-controlled, multi-center trial involving exisulind administered to the drug-receiving patients at 500 mg/day. […] Although a rising level of PSA is not itself a disease condition, it is widely regarded in the medical community as a surrogate marker indicative of the presence of recurrence of prostate cancer in such men.
In addition to performing an analysis based on the differences in mean PSA levels between the exisulind and placebo groups as a whole, the interim analysis included subgroup analysis. The patients in the study were classified into high, intermediate and low risk groups in terms of their risk of developing metastatic disease. This classification was performed by a researcher at Johns Hopkins University, using the methodology published by them and other Johns Hopkins' researchers in the Journal of the American Medical Association (JAMA May 5, 1999, pp. 1591-97). To ascertain which study patients fell into which risk group, medical histories were supplied to the researcher who was blinded as to whether patients were on drug or placebo; they assigned study patients to the appropriate risk groups according to the above referenced published methodology.

CC1=C(CC(=O)O)c2cc(F)ccc2/C1=C\c1ccc(S(C)(=O)=O)cc1 [Exisulind, 5-fluoro-2-methyl-1-(p-methylsulfonylbenzylidene)-3-indenylacetic acid]
IC50 [1]: > 10 mM | PSA levels vs placebo ([2]; 500 mg/day): significantly reduced as compared with the PSA levels of the placebo-treated group; also recorded: statistically significant differences in mean PSA levels between exisulind and placebo patients in both high and intermediate risk groups | Mean PSA level, High Risk ([2]; 500 mg/day, High Risk, placebo 4.98): 2.91 | Mean PSA level, Intermediate Risk ([2]; 500 mg/day, Intermediate Risk, placebo 6.24): 2.95 | Mean PSA level, Overall ([2]; 500 mg/day, Overall, placebo 4.49): 2.85 | "p" value, mean PSA, High Risk ([2]; vs placebo, High Risk): 0.0002 | "p" value, mean PSA, Intermediate Risk ([2]; vs placebo, Intermediate Risk): 0.0053 | "p" value, mean PSA, Overall ([2]; vs placebo, Overall): 0.0004
